Where two headings read alike, the source gives them in different places.
Tests used:
[1] = system: AMO-1 plasmacytoma cell line; test: CellTiter-Glo cell viability assay; assay type: cell-based; conditions: Homo sapiens, AMO1, 72 h, read-out: PXD-101 IC50
Procedure: (§1) Percent activity (% activity), was calculated for each test compound as: % activity={(S^c−B)/(S^o−B)}×100
(§2) wherein S^c denotes signal measured in the presence of the compound being tested, S^o denotes signal measured in the absence of the compound being tested, and B denotes the background signal measured in blank wells containing medium only. The IC50 corresponds to the drug concentration which achieves 50% activity of untreated control cultures. IC50 values were calculated using the software package Prism 3.0 (GraphPad Software Inc., San Diego, Calif.) with variable slope option.
(§3) This example reports the effects of PXD-101 on six distinct multiple myeloma cell lines, three plasma cell leukemia cell lines and one plasmacytoma. The cells were incubated with PXD-101 for 72 hours in vitro, and their viability measured by the CellTiter-Glo assay.

[2] = system: EJM multiple myeloma cell line; test: CellTiter-Glo cell viability assay; assay type: cell-based; conditions: Homo sapiens, 72 h, read-out: PXD-101 IC50
Procedure: as §1, §2, §3

[3] = system: KARPAS-620 plasma cell leukemia cell line; test: CellTiter-Glo cell viability assay; assay type: cell-based; conditions: KARPAS-620, plasma cell leukemia t(8;14)(q24;q32); 72 h; read-out: PXD-101 IC50
Procedure: as §1, §2, §3

[4] = system: KMS-12-BM multiple myeloma cell line; test: CellTiter-Glo cell viability assay; assay type: cell-based; conditions: Homo sapiens, MM t(11;14)(q13;q32), 72 h, read-out: PXD-101 IC50
Procedure: as §1, §2, §3

[5] = system: L-363 plasma cell leukemia cell line; test: CellTiter-Glo cell viability assay; assay type: cell-based; conditions: Homo sapiens, 72 h, read-out: PXD-101 IC50
Procedure: as §1, §2, §3

[6] = system: LP-1 multiple myeloma cell line; test: CellTiter-Glo cell viability assay; assay type: cell-based; conditions: Homo sapiens, LP-1, MM t(4;14)(p16;q32), 72 h, read-out: PXD-101 IC50
Procedure: as §1, §2, §3

[7] = system: OPM-2 multiple myeloma cell line; test: CellTiter-Glo cell viability assay; assay type: cell-based; conditions: Homo sapiens; OPM-2, MM t(4;14)(p16;q32); 72 h; read-out: PXD-101 IC50
Procedure: as §1, §2, §3

[8] = system: RPMI-8226 multiple myeloma cell line; test: CellTiter-Glo cell viability assay; assay type: cell-based; conditions: Homo sapiens, 72 h, read-out: PXD-101 IC50
Procedure: as §1, §2, §3

[9] = system: SK-MM-2 plasma cell leukemia cell line; test: CellTiter-Glo cell viability assay; assay type: cell-based; conditions: Homo sapiens; SK-MM-2, plasma cell leukemia t(11;14)(q13;q32); 72 h; read-out: PXD-101 IC50
Procedure: as §1, §2, §3

[10] = system: U266 multiple myeloma cell line; test: CellTiter-Glo cell viability assay; assay type: cell-based; conditions: Homo sapiens, U-266, 72 h, read-out: PXD-101 IC50
Procedure: as §1, §2, §3

[11] = system: six multiple myeloma cell lines, three plasma cell leukemia cell lines and one plasmacytoma; test: CellTiter-Glo cell viability assay, all ten cell lines; assay type: cell-based; conditions: 72 h
Procedure: as §1, §2, §3

[12] = system: diverse tumor cell lines; test: Proliferation of diverse tumor cell lines; assay type: cell-based
[13] = Phase 1 dose escalation study, safety; assay type: in vivo, human
Procedure: (§4) A Phase 1 open label, dose escalation, safety, pharmacokinetics (PK), and pharmacodynamics (PD) study of PXD-101 was conducted in patients with advanced cancers.
(§5) PXD-101 was administered as a 30-minute intravenous (IV) infusion daily for 5-days every 3-weeks. In a subgroup of patients, PXD-101 was administered orally once, twice or thrice on day 1 only, in course 2 or 3. Acetylation of histones extracted from peripheral blood mononuclear cells (PBMNC) was measured by Western blotting. The PK/PD profile of intravenous and oral PXD-101 was evaluated.
The results of this study are as follows: 34 patients (median age 58 years, range 28-74; 19 male, all ECOG PS≤2) have been treated with a total of 103 cycles of PXD-101 (median 2; range 1 to 13) at 6 dose levels: 150 mg/m^2 (4 patients), 300 mg/m^2 (4 patients), 600 mg/m^2 (6 patients), 900 mg/m^2 (3 patients), 1000 mg/m^2 (12 patients) and 1200 mg/m^2 (5 patients).

[14] = Phase 1 dose escalation study, pharmacokinetics; assay type: in vivo, human; conditions: for half-life / Cmax / bioavailability: human, in vivo
Procedure: as §4, §5

[15] = system: histone H4 acetylation in peripheral blood mononuclear cells; test: Phase 1 study, pharmacodynamics: acetylation of histones from PBMNC by Western blotting; assay type: in vivo, human
Procedure: as §5

[16] = system: advanced cancers; test: Phase 1 study, tumor reduction in patients with advanced cancers; assay type: in vivo, human; conditions: a patient with epithelial mediastinal thymoma
Procedure: A Phase 1 open label, dose escalation, safety, pharmacokinetics (PK), and pharmacodynamics (PD) study of PXD-101 was conducted in patients with advanced cancers. PXD-101 was administered as a 30-minute intravenous (IV) infusion daily for 5-days every 3-weeks. In a subgroup of patients, PXD-101 was administered orally once, twice or thrice on day 1 only, in course 2 or 3. Acetylation of histones extracted from peripheral blood mononuclear cells (PBMNC) was measured by Western blotting. The PK/PD profile of intravenous and oral PXD-101 was evaluated.

[17] = system: A2780 ovarian cancer subcutaneous xenograft; test: A2780 ovarian cancer subcutaneous xenograft model; assay type: in vivo; conditions: AVASTIN 5 mg/kg on day 4, mice
Procedure: The object of this study was to investigate the tumour growth inhibitory effect of AVASTIN® (bevacizumab) in an A2780 ovarian cancer subcutaneous xenograft model. Mice were treated on day 4 with AVASTIN® (bevacizumab) (5 mg/kg). The chemosensitising effect of PXD-101 in combination with AVASTIN® (bevacizumab) was also investigated.

O=C(/C=C/c1cccc(S(=O)(=O)Nc2ccccc2)c1)NO [PXD-101]
IC50 [1]: 29 nM
IC50 [2]: 123 nM
IC50 [3]: 112 nM
IC50 [4]: 88 nM
IC50 [5]: 100 nM
IC50 [6]: 45 nM
IC50 [7]: 106 nM
IC50 [8]: 196 nM
IC50 [9]: 28 nM
IC50 [10]: 141 nM
IC50 ([11]; mean of ten cell lines, read-out: IC50, mean of the ten cell lines): 97 nM
IC50 ([11]; ten cell lines, read-out: IC50, range over the ten cell lines): 28 to 196 nM
IC50 [12]: 80 to 2430 nM
Patients with dose limiting toxicity ([13]; both, human, in vivo, iv, 5 days every 3 weeks): 3 patients
Most commonly reported other adverse events ([13]; in vivo): fatigue, nausea, vomiting, constipation, diarrhea and injection site reactions
Dose limiting toxicity ([13]; in vivo, iv): short-lived atrial fibrillation
Tolerability, in words ([13]; in vivo, iv): well tolerated
Tolerability, in words ([13]; in vivo, po): well tolerated
MTD ([13]; once daily for 5-days 30-minute IV infusion): 1000 mg/m^2
Accumulation, oral ([14]; 8-hour interval dosing): tendency towards accumulation
Accumulation, oral ([14]; 12-hour interval dosing): no accumulation
half-life ([14]; intravenous, one patient outside the range, read-out: t1/2, one patient (converted)): 1.8 h
half-life ([14]; iv, patients, IV infusion, read-out: Terminal elimination half-life): 0.5 to 1 h
Cmax ([14]; iv, reached at the end of the infusion): 6500 to 55800 ng/mL
Cmax ([14]; po, 1000 mg/m2, b.i.d. 1000 mg/m^2 oral on a single day, 5 patients): 1100 to 2900 ng/mL
bioavailability ([14]; po, 1000 mg/m2, b.i.d. 1000 mg/m^2 oral on a single day, 5 patients, SD 12.5%, read-out: Mean oral bioavailability): 42.8%
half-life ([14]; po, 1000 mg/m2, b.i.d. 1000 mg/m^2 oral on a single day, 5 patients, read-out: t1/2): 1.5 to 2 h
Cmax ([14]; po, 1000 mg/m2, t.i.d. 1000 mg/m^2 oral on a single day, 2 patients): 1300 to 1800 ng/mL
half-life ([14]; po, 1000 mg/m2, t.i.d. 1000 mg/m^2 oral on a single day, 2 patients, read-out: t1/2): 2 to 2.6 h
bioavailability ([14]; po, oral single dose, read-out: Mean single dose oral bioavailability): 33%
Oral bioavailability, in words ([14]; patients): orally bioavailable
PK dose dependence, in words ([14]; patients, IV): dose-proportional
Accumulation on repeated IV dosing ([14]; repeated IV dosing): no drug accumulation
Duration of histone H4 hyperacetylation ([15]; IV infusion, dose-dependent): 4 to 24 h
Duration of histone acetylation above baseline ([15]; oral 1000 mg/m^2): 5 to 10 h
Histone acetylation above baseline ([15]; oral 1000 mg/m^2): 40-50%
Reduction of mediastinal disease [16]: 70%
Time on the study [16]: over 1 year

AVASTIN® (bevacizumab): recombinant humanized antibody to Vascular Endothelial Growth Factor (VEGF)
Tumour growth inhibition, in words [17]: significant growth inhibition

Reference: US9980957B2, “Histone deacetylase (HDAC) inhibitors for the treatment of cancer” (TopoTarget UK Limited, priority 2005, dated 2018)
